Values of other authors as cited in patent publication US20090088424A1, “METHODS AND COMPOSITIONS FOR CONTROLLING THE BIOAVAILABILITY OF POORLY SOLUBLE DRUGS” (priority 2007, published 2009).
Values after ≈ are worked out from the molar mass of the structure shown.

Conditions: pH 8.7, 25° C.

For `O=C1Nc2ccc(Cl)cc2[C@@](C#CC2CC2)(C(F)(F)F)O1` [Efavirenz, (S)-6-chloro-4-(cyclopropylethynyl)-1,4-dihydro-4-(trifluoromethyl)-2H-3,1-benzoxazin-2-one], which aqueous solubility is on record?
Its aqueous solubility is 9.2 µg/mL (≈ 29.1 µM).
